# Experimental data published in US20180265867A1, “NUCLEIC ACID MOLECULES WITH ENHANCED ACTIVITY” (priority 2015, published 2018).
# d = 2'-deoxy (DNA); r = 2'-OH (RNA)
# Experiments:
# Format in all cases: cell-based, human
# [1] = tested on: GAPDH; test: Energy dependence of cpRNA uptake: transfection at 4° C. or 37° C., GAPDH knockdown; conditions: carrier-free
# Experimental: To determine, if cellular uptake of cpRNA is an energy dependent endocytosis process, transfection experiments were performed at 4° C. and 37° C. Briefly, HCT116, HOB and MG63 cells were plated and incubated with cpRNA (dT5 or dA5 or scrambled siRNA sequence) at 4° C. or 37° C. for 4 h. After 4 h, medium was replaced with fresh medium and the cells were incubated for additional 24 h. Untreated cells were used as controls. Each transfection was performed in triplicate. […] Cellular uptake using these siRNA sequences was reduced by nearly 30% when experiments were performed at 4° C., see FIG. 4.
# Next, it was investigated if the cellular uptake mechanism of cpRNA occurred by endocytosis. Transfection experiments were performed with dT5-modified cpRNA at 4° C. and found lower RNAi activity (50% gene knockdown) compared to activity at 37° C. […] Upon endocytosis, the 5-nt overhang length participated in an unknown endosomal escape mechanism that promoted cytosol transport of RNA. […] TLR-7, -8 and -9, selectively bind single-stranded DNA or RNA sequences with TLR-7 and -8 preferentially bind U and G rich sequence while TLR-9 bind CpG nt repeats. TLR3, on the other hand, nonspecifically binds the 21mer RNA duplex after dimerization of the receptor to form a 2:1 TLR3-RNA complex. […]
# [2] = tested on: MG63 cells; test: Flow cytometry uptake kinetics and ODN2006 blocking in MG63 cells
# Experimental: To determine cpRNA cellular uptake kinetics, FACS experiments were repeated as mentioned above using MG63 cells, where Cy3-cpRNA was treated for different time points. Briefly, Cy3-cpRNA (50 nM) was added to cells, followed by incubation for 0.5 h, 1 h, 1.5 h, 2 h, 3 h and 4 h respectively. The cells were subsequently trypsinised and analyzed by FACS as mentioned above.
# To perform […] blocking studies, seeded MG63 cells were incubated with 600 nM 3′-FITC labeled ODN2006 for 1 h, followed by addition of 50 nM cpRNA. Cells were incubated for additional 0.5 h, 1 h, 1.5 h, 2 h, 3 h and 4 h respectively, trypsinised and analyzed by FACS analysis as mentioned above.
# To verify if the uptake mechanism of cpRNA was analogous to viral RNA and the RNA mimic polyriboinosinic:polyribocytidylic acid or poly(I:C), blocking studies were performed using the Btype single-stranded DNA sequence ODN2006 which share a common uptake receptor. This synthetic phosphorothioate modified oligo, though initially identified as a TLR9 agonist, blocks cellular uptake of viral RNA and poly(I:C) by preferentially competing with the common RNA uptake receptor. Blocking experiment were performed by pre-incubating the cells with FITC labeled ODN2006 for 1 h, followed by the addition of Cy3-labeled cpRNA. The blocking studies and cellular uptake was monitored using FACS analysis at different time points for up to 4 h. As a control experiment, the uptake kinetics was performed in the absence of FITC labeled ODN2006. […] These experiments verified the involvement of an alternate uptake mechanism and indicated the presence of a ubiquitous RNA capture receptor that required ˜1 h of maturation time before the endocytosis process could initiate.
# [3] = tested on: IFN-α, IFN-β, IFN-γ; test: Interferon assay (IFN-α, β, γ mRNA by RT-PCR) in MG63 cells; conditions: 50 or 100 nM, 24 h, compared to cell-alone control or scrambled sequence
# Experimental: cDNA synthesis was performed in triplicate using total RNA reverse transcribed using High Capacity cDNA reverse transcription kit (Applied Biosystems, USA), with non-template control added to ensure a lack of signal in assay background. Reactions were incubated on a 96-well Applied Biosystems 9800 Fast Thermal Cycler PCR System at 37° C. for 60 min followed by 95° C. for 5 min. The real-time PCR reactions were carried out with 10 μl of 2×TaqMan® Universal PCR Master Mix, no AmpErase® UNG (Applied Biosystems, USA), 9 μl diluted cDNA, and 1 μl of TaqMan gene specific assay mix in a 20 μl final reaction volume. Reference gene beta-actin (ACTB) (Applied Biosystems, USA) was selected as control for normalization of TaqMan data. […] Data from samples with a Ct value equal to or below 35 were further analyzed. Samples were normalized relative to endogenous control and differences in cycle number thresholds were calculated using comparative quantitation 2^−ΔΔcT method (also called the ΔΔCT method), commonly used for analyzing siRNA induced gene knockdown efficiency. […]
# Thus, because cellular stress mainly originates from maturation of the RNA-TLR complex in the endosome or activation of RIG-1 in the cytoplasm, we investigated immune activation and IFN response using cpRNA and a scrambled sequence. The levels of Type-I (IFN-α and β) and Type-II (IFN-γ) IFN were tested via quantitative RT-PCR. […]
substance,measurement,setting,value
"dT5: GAPDH siRNA, sense SEQ ID NO: 3 with dT5 3′-overhang, antisense SEQ ID NO: 2 with dT2 (sense CCGAGCCACAUCGCUCAGATTTTT; antisense UCUGAGCGAUGUGGCUCGGTT; sense: sugars from the 5' end r19 d5, backbone not given here; antisense: sugars from the 5' end r19 d2, backbone not given here)",GAPDH gene knockdown at 4° C.,"[1]; incubation at 4° C. for 4 h, then 24 h",50%
same,GAPDH gene knockdown at 37° C.,[1]; incubation at 37° C.,80%
same,effect of ODN2006 on cellular uptake,[2]; MG63 cells pre-incubated 1 h with 600 nM FITC labeled ODN2006,did not inhibit uptake
same,time after which cellular uptake was initiated,"[2]; MG63 cells, 50 nM, 37° C.",~1 h
same,time in which uptake finished after initiation,"[2]; MG63 cells, 50 nM, 37° C.",2 h
same,"IFN response / immune activation (IFN-α, β, γ mRNA)",[3],no significant IFN response
